Data: patent US20250092014A1, “COMPOUNDS AND METHODS OF ACTIVATING LIPOPROTEIN LIPASE” (Metrea Biosciences, Inc., priority 2021, published 2025)
pEC50: −log10 of the molar value.

What was measured:
[1] = target: T1, LPL (native bovine milk protein) inactivated by ANGPTL4 (Bos taurus, UniProt P11151); experiment: LPL ANGPTL4 protection assay (LPL fluorescence assay, resorufin butyrate substrate); type: biochemical; settings: LPL activation activity, LPL 2.5 nM, ANGPTL4 20 nM
T1 construct: from tissue; host or cells: bovine milk (LPL); E. coli (GST-ANGPTL4)
T1 sequence (P11151 29-478): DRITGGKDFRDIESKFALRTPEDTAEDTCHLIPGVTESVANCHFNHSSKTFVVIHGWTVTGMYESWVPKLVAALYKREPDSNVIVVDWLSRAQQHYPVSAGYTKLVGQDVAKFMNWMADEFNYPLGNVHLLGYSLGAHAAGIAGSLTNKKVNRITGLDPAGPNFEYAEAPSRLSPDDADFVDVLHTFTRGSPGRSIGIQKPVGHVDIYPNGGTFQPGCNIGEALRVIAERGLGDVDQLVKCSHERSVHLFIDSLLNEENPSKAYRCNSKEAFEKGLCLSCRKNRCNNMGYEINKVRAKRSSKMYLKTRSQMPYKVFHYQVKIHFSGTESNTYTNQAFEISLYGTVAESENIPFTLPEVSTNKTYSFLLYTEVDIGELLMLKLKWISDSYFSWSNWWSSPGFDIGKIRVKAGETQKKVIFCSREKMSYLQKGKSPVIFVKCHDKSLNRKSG

[2] = system: C57BL/6 mice; experiment: Oral fat tolerance test (postprandial triglyceridaemia after olive oil bolus); type: in vivo; settings: overnight-fasted C57BL/6 mice, compound IP 1 h before 10 mL/kg olive oil, bled at 1, 2 and 3.5 h
Procedure: To examine to effects of test compounds on postprandial triglycerdemia, 5-7 week old C57BL/6 mice were fasted overnight (18 hours) on non-nutritive bedding (Alpha-Dri). Following the overnight fast, the mice are bled via retro-orbital sinus (25 μL) using microcapillaries (t-1 hr sample). The LPL activator test compound was then administered intraperitoneally (IP) in a dose volume of 10 ml/kg. One hour later the mice were bled for the t=0 timepoint. The mice were then immediately dosed with a 10 mL/kg oral bolus of olive oil. The mice were subsequently bled at 1-, 2-, and 3.5-hours post-olive oil administration.
Whole blood samples were collected into tubes containing 0.125% EDTA solution in saline. Diluted plasma samples were analyzed for triglyceride levels using Infinity Triglyceride reagent (Thermo) on a microtiter plate. Briefly, 10 μL of diluted sample was added the plate. 200 μL of the reagent was added and the plate was incubated for 10 minutes at 37° C. The plate was then read at 550 nm on a Molecular Devices M5 Spectrophotometer (San Jose, CA). The concentration of triglycerides in the sample was determined using a standard curve made using a dilution of triglyceride standard (Sigma-Aldrich, St. Louis, MO) using the Softmax software from Molecular Devices. All graphing and subsequent area under-the-curve and statistical analysis (Student's t Test) is performed using GraphPad Prism (version 8.0, GraphPad Software, Inc., San Diego, CA).

In the case of `O=C(O)Cc1cc(F)ccc1NC(=O)c1ccc(N2CCCCC2)c(NC(=O)c2nn(CC(F)(F)F)c3ccccc23)c1` [Compound 158, 2-(5-fluoro-2-(4-(piperidin-1-yl)-3-(1-(2,2,2-trifluoroethyl)-1H-indazole-3-carboxamido)benzamido)phenyl)acetic acid], the pEC50 [1] was 6.00 and the “hypertriglyceridemia response to oral olive oil gavage (plasma triglycerides)” value [2] was “blunts hypertriglyceridemia response in a dose-dependent fashion”.
